# Measurements reported in patent publication US20050038113A1, “Valproic acid and derivatives for the combinatorial therapeutic treatment of human cancers and for the treatment of tumor metastasis and minimal residual disease” (G2M Cancer Drugs AG, priority 2001, published 2005).
# Legend:
# [1] = system: MDA-MB453 breast carcinoma cells; test: MTT cell viability assay; assay type: cell-based, Human; conditions: 70 h
# Description: (§1) Human MDA-MB468, MDA-MB453 and SKBR3 breast carcinoma cells and A431 squamous cell carcinoma cells were maintained in Dulbecco's modified Eagle's medium (DMEM, BioWhittaker, Verviers, Belgium) supplemented with 10% heat inactivated fetal bovine serum (FBS), 2 mM L-glutamine, 100 units/ml penicillin, and 100 μg/ml streptomycin.
# (§2) Tumor cells were seeded in 96 well plates at a density of 1×10^4 cells/well in normal growth medium. […] Control cells were grown in the absence of valproic acid or antibodies. 10 μl of 10 mg/ml 3-(4,5-dimethylthiazole-2-yl)-2,5 diphenyltetrazolium bromide (MTT) (Sigma, Deisenhofen, Germany) in PBS were added to each well and the cells were incubated for another 3 h. Cells were lysed by the addition of 90 μl of lysis buffer (20% SDS in 50% dimethyl formamide, pH 4.7). After solubilization of the formazan product, the absorption at 590 nm was determined in a microplate reader (Dynatech, Denkendorf, Germany) and the relative amount of viable cells in comparison to cells cultured without the addition of valproic acid or antibodies was calculated.
# [2] = system: MDA-MB468 breast carcinoma cells; test: MTT cell viability assay; assay type: cell-based, Human
# Description: as §1, §2
# [3] = system: A431 squamous cell carcinoma cells; test: MTT cell viability assay; assay type: cell-based, Human; conditions: for cell viability: single reagent, valproic acid 3 mM
# Description: as §1, §2
# (§3) Human SKBR3 breast carcinoma cells, A431 squamous cell carcinoma cells and SKOV3 ovarian carcinoma cells were maintained in Dulbecco's modified Eagle's medium (DMEM, BioWhittaker, Verviers, Belgium) supplemented with 10% heat-inactivated fetal bovine serum (FBS), 2 mM L-glutamine, 100 units/ml penicillin, and 100 μg/ml streptomycin.
# (§4) Tumor cells were seeded in 96 well plates at a density of 1×10^4 cells/well in normal growth medium. […] Renca-lacZ/ErbB2, Renca-lacZ/EGFR and Renca-lacZ/EGFRvIII cells were treated for 40 h with valproic acid at a final concentration of 1 mM, or 10 ng/ml of the recombinant anti-ErbB2 single chain antibody-toxin scFv(FRP5)-ETA, or 1 ng/ml of the recombinant anti-EGF receptor single chain antibody-toxin scFv(14E1)-ETA, or a combination of valproic acid with either scFv(FRP5)-ETA or scFv(14E1)-ETA at the same concentrations. Control cells were grown in the absence of valproic acid or antibody-toxins. Ten μl of 10 mg/ml 3-(4,5-dimethylthiazole-2-yl)-2,5 diphenyltetrazolium bromide (MTT) (Sigma, Deisenhofen, Germany) in PBS were added to each well and the cells were incubated for another 3 h. Cells were lysed by the addition of 90 μl of lysis buffer (20% SDS in 50% dimethyl formamide, pH 4.7). After solubilization of the formazan product, the absorption at 590 nm was determined in a microplate reader (Dynatech, Denkendorf, Germany) and the relative amount of viable cells in comparison to cells cultured without the addition of valproic acid or antibody-toxins was calculated.
# [4] = system: SKBR3 breast carcinoma cells; test: MTT cell viability assay; assay type: cell-based, Human; conditions: for cell viability: single reagent, valproic acid 3 mM
# Description: as §1, §2, §3, §4
# [5] = system: wild-type cells (hematopoietic progenitor cells); test: X-ray sensitivity, colonies in methylcellulose; assay type: cell-based, Murine; conditions: VPA 1 mM, X-ray 2 Gy
# Description: Lin- cells were transduced as described for FIG. 11 (see also methods in example 10 for details), and sorted by FACS. 12 hours after sorting, cells were washed with PBS, and then incubated for 8-12 hours in medium with cytokines [data presented in FIG. 12 using IL-3 (20 ng/ml), IL-6 (20 ng/ml), SCF (100 ng/ml), G-CSF (60 ng/ml), GM-CSF (20 ng/ml)] or without cytokines (data not shown). […] Finally, cells were plated in methylcellulose containing medium (StemCell Technologies) in the presence of cytokines (IL3, IL6, SCF, G- and GM-CSF) for 8-10 days. For FIG. 12 uninfected cells (“Control”), or cells expressing GFP alone (“Empty Vector”), or cells expressing GFP and PML-RAR (“PML-RAR”) were used. 8 days after plating in methylcellulose, the total number of colonies was measured.
# [6] = system: PML-RAR expressing murine hematopoietic progenitors (lin-); test: myeloid differentiation (Mac-1, FACS) of transduced hematopoietic progenitors; assay type: cell-based; conditions: VPA 1 mM with cytokines (IL3, IL6, SCF, G-CSF, GM-CSF), 8-10 days
# Description: Murine hematopoietic progenitors (lin-) were transduced with a retroviral vector encoding PML-RAR, and GFP as a marker. […] Myeloid differentiation was scored by analyzing the presence of the differentiation marker Mac-1.
# Lin- cells were grown for 48 hours in the presence of IL-3 (20 ng/ml), IL-6 (20 ng/ml), SCF (100 ng/ml), and then attached to non-tissue culture treated plates coated with Retronectin (Takara-Shuzo). Cells were then transduced by incubation with the supernatant from Phoenix ecotropic packaging cells (supplemented with fresh serum, and IL-3, IL-6, and SCF as above), transiently transfected with the control retroviral vector PINCO, or PINCO-PML-RAR. After 60 hours, GFP+cells were sorted by FACS, and seeded in methylcellulose plates supplemented as above, plus G-CSF (60 ng/ml) and GM-CSF (20 ng/ml). […] After 8-10 days, cells were analyzed for the presence of the myeloid differentiation marker Mac-1 by FACS.
# Differentiation was assessed after 8-10 days by analysis of the myeloid differentiation marker Mac-1.
# [7] = used as an antiepileptic drug during pregnancy; cited from earlier work
# [8] = 3 mM valproic acid + 10 ng/ml scFv(14E1)-ETA, 40 h
# [9] = 3 mM valproic acid + 10 ng/ml scFv(FRP5)-ETA, 40 h
# [10] = 40 h, scFv(FRP5)-ETA 10 ng/ml, scFv(14E1)-ETA 10 ng/ml
compound,measurement,setting,value
"CCCC(CCC)C(=O)O [VPA, 2-propylpentanoic acid]","cell viability, combination treatment",[1]; 3 mM VPA + 2 μg/ml Herceptin,synergistic reduction of cell viability
same,cell viability,"[1]; single reagent, valproic acid 3 mM, Herceptin 2 μg/ml",inhibit the viability
same,"cell viability, combination treatment","[2]; 3 mM VPA + 2 μg/ml c225, 70 h",synergistic reduction of cell viability
same,cell viability,"[2]; single reagent, 70 h, valproic acid 3 mM, c225 2 μg/ml",inhibit the viability
same,"cell viability, combination treatment","[3]; 3 mM VPA + 2 μg/ml c225, 70 h",synergistic reduction of cell viability
same,"cell viability, combination treatment",[3]; [8],pronounced additive therapeutic effect
same,"cell viability, combination treatment",[3]; [9],pronounced additive therapeutic effect
same,cell viability,[3]; [10],inhibit the viability
same,cell viability,"[3]; 70 h, c225 2 μg/ml",inhibit the viability
same,"cell viability, combination treatment",[4]; [8],pronounced additive therapeutic effect
same,"cell viability, combination treatment",[4]; [9],pronounced additive therapeutic effect
same,"cell viability, combination treatment","[4]; 3 mM valproic acid + 2 μg/ml Herceptin, 70 h",pronounced additive therapeutic effect
same,cell viability,[4]; [10],inhibit the viability
same,cell viability,"[4]; 70 h, Herceptin 2 μg/ml",inhibit the viability
same,X-ray sensitivity,[5],slightly decreased the sensitivity
same,differentiation block imposed by PML-RAR (Mac-1),[6],almost completely reverted the differentiation block
same,birth defects (neural tube closure defects and other malformations) in born children,[7],a few percent
